The results in this text go back to PubChem BioAssay (NCI).

Usually TGI stands for the concentration giving total growth inhibition. A low value points to greater sensitivity of the cells. Broadly, the GI50 is the concentration giving 50% growth inhibition.

Assay in all cases: DTP human tumour cell line panel, 48 h
Experiment [1] has as its system HCT-15 colon.
Experiment [2] deals with NCI-H460 lung.
For experiment [3], the system named is M14 melanoma.
The subject of experiment [4] is SF-268 CNS.
The test system of experiment [5] is A549 NSCLC.
Experiment [6] relates to DU-145 prostate.
The test system of experiment [7] is MCF7 breast.
The subject of experiment [8] is UACC-62 melanoma.
For experiment [9], the system named is NCI-H226 lung.
For experiment [10], the system named is OVCAR-3 ovarian.

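These data come from cells grown in 96-well plates and exposed to compound for 48 hours at five concentrations. Abbreviation: GI50, concentration required for 50% inhibition of growth. Definition used: TGI = concentration required for complete inhibition of growth.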

As to `COC[C@H](Cc1ccccc1)N=Cc1ccccc1`, the TGI in [1], in [2], in [3], in experiment [4], in [5] and in experiment [6] was more than 100 µM throughout. The total growth inhibition concentration (TGI) in [7] and in experiment [8] was more than 100 µM throughout.
Consider `COc1cc2c(oc(=O)c3c4oc([Si](C)(C)C)cc4cc(OC)c23)c2cccc(O)c12`, for which the TGI in experiment [1], in [2], in experiment [3], in experiment [4], in experiment [9] and in experiment [10] was more than 100 µM each time. Also, the TGI in experiment [5] and in experiment [8] was more than 100 µM each time.
As for `O=C(CCc1nnc2s/c(=C\c3ccc(Cl)cc3Cl)c(=O)n12)Nc1cc(Cl)c(Cl)cc1Cl`, the GI50 in [1], in [3], in experiment [4], in experiment [9], in [10] and in experiment [5] was more than 100 µM in each case. In experiment [8], the GI50 was more than 100 µM. Also, the TGI in experiment [1], in [3], in experiment [4], in [9], in experiment [10] and in experiment [5] was more than 100 µM throughout. The TGI in [8] was more than 100 µM.
On to `CC(C)(C)C(=O)Cc1cc2c(cc1C(=O)O)S(=O)(=O)NC(C(C)(C)C)=C2`, for which the TGI in experiment [2], in experiment [3], in [4], in experiment [9], in experiment [10] and in experiment [5] was more than 100 µM each time. This molecule showed a concentration for total growth inhibition (TGI) in experiment [8] of more than 100 µM.
`CCOC(=O)C1(C/C=C\CBr)CCCCCCC1=O` (centres undefined): the TGI in experiment [1], in experiment [3], in [4], in experiment [9], in [5] and in experiment [6] was more than 100 µM in each case. The TGI in [7] and in experiment [8] was more than 100 µM throughout.
For `C[Si](C)(C)C1=C2C(=O)c3ccccc3C(=O)C2=C([Si](C)(C)C)[C@@H]2CCCC[C@H]12`, the TGI in [1], in experiment [2], in experiment [3], in experiment [10], in experiment [5] and in experiment [6] was more than 100 µM each time. Moreover, the TGI in [7] and in experiment [8] was more than 100 µM each time.
For `Cc1cc(C)n(CN(Cn2nc(C)cc2C)c2ccc(N(Cn3nc(C)cc3C)Cn3nc(C)cc3C)cc2)n1`, the TGI is 45.4 µM in experiment [1]; 63.8 µM in experiment [2]; 36.5 µM in [3]; 69.7 µM in [4]; 49.3 µM in experiment [10]; 89.1 µM in experiment [5]. The TGI was 58.3 µM in [6], 44.4 µM in experiment [7] and 44.9 µM in experiment [8].
`N#C/C(=C/NC(=S)Nc1ccc(S(N)(=O)=O)cc1)C(N)=O`: the total growth inhibition concentration (TGI) in [1], in [2], in [3], in [4], in [10] and in experiment [5] was more than 100 µM in each case. Also, the TGI in experiment [6], in experiment [7] and in experiment [8] was more than 100 µM throughout.
Take `CC(C)OP(=O)(OC(C)C)c1ncn(-c2ccc([N+](=O)[O-])cc2)n1`: the TGI in [1], in [2], in experiment [3], in experiment [4], in experiment [9] and in experiment [10] was more than 100 µM throughout. Besides, the TGI in experiment [5] and in [8] was more than 100 µM throughout.
With `COCN1C(=O)[C@@H]2C[C@@H](OC/C=C/CBr)CN2C(=O)c2ccccc21`, the TGI worked out at 56.2 µM in experiment [1]; 42.9 µM in experiment [3]; 83.4 µM in experiment [4]; 29.9 µM in experiment [9]; 35.5 µM in experiment [5]; 43.9 µM in experiment [6]. Moreover, the TGI in experiment [7] is 33.7 µM; in [8], 71.5 µM.
Consider `CC(C)(Oc1ccc(C2C[C@H]2Cl)cc1)C(=O)O` (some centres undefined), for which the TGI in experiment [1], in experiment [2], in [10], in experiment [5], in [6] and in experiment [7] was more than 100 µM in each case. The molecule further showed a TGI in experiment [8] of more than 100 µM.
For `CC1=C2CC3=C(C)C(=O)O[C@H]3C[C@@H](C)[C@@H]2CC1`, the TGI in experiment [1], in experiment [2], in [3], in [4], in experiment [9] and in experiment [10] was more than 100 µM throughout. In experiment [8], this molecule had a TGI of more than 100 µM.
As to `O=C(c1ccccc1)c1cc(-c2ccccc2)c(-c2ccccc2)[nH]c(=O)c1=O`, the TGI in [1], in experiment [2], in [3], in [4], in experiment [9] and in [10] was more than 100 µM each time. In addition, the TGI in experiment [5] was more than 100 µM; in experiment [7], more than 100 µM; in [8], 82.2 µM.
Turning to `COc1ccc2[nH]c3c(C)c4ccnc(NCCCN(C)CCCNC(=O)NCCCN(C)CCCNc5nccc6c(C)c7[nH]c8ccc(OC)cc8c7c(C)c56)c4c(C)c3c2c1`, the TGI in [1] was more than 17.6 µM; in experiment [2] it was 1.34 µM; in experiment [3], 1.33 µM; in [4] it was 3.25 µM; in experiment [10] it was 8.29 µM; in [6] it was more than 10.9 µM. The TGI in experiment [8] is more than 11.6 µM.
As to `CCCCCCCCCCCCCCCCCc1nc(C#N)c(N)o1`, the TGI in [1], in [3], in experiment [4], in experiment [5], in [6] and in [7] was more than 100 µM in each case. In experiment [8], the concentration for total growth inhibition (TGI) is more than 100 µM.
Consider `COC[C@@H](N=Cc1ccc(OC)cc1)C(C)C`, for which the TGI in experiment [1], in [2], in experiment [3], in [4], in experiment [5] and in experiment [6] was more than 100 µM throughout. Moreover, the TGI in [7] and in [8] was more than 100 µM throughout.
On to `O=C(Cl)c1cc([N+](=O)[O-])cc([N+](=O)[O-])c1`, for which the TGI in experiment [1], in experiment [2], in experiment [3], in experiment [4], in experiment [9] and in [5] was more than 100 µM each time. In experiment [8], this molecule came in with a TGI of more than 100 µM.
For the molecule `O=C1CSC(c2ccc(Cl)cc2)N1c1ccc(-n2c(-c3ccccc3)nc3ccccc3c2=O)cc1` (centres undefined), the TGI in [1], in experiment [2], in experiment [3], in experiment [4], in experiment [9] and in experiment [10] was more than 100 µM each time. Further, the TGI in experiment [5], in [7] and in experiment [8] was more than 100 µM throughout.
On to `CC1(C)CC(=O)C2=C(C1)OC1=C(CC(C)(C)CC1=O)C2c1ccccc1Cl` (centres undefined), for which the TGI in experiment [1], in experiment [2], in experiment [3], in experiment [4], in experiment [9] and in experiment [10] was more than 100 µM each time. In addition, the total growth inhibition concentration (TGI) in experiment [5], in experiment [6] and in [8] was more than 100 µM each time.
Turning to `Cc1ccc(-n2cc(-c3ccc(Cl)cc3)c3c(NNC(=S)NCc4ccccc4)ncnc32)cc1`, the TGI in experiment [1] is 68.2 µM; in experiment [2] it was 12.4 µM; in [3], 37.6 µM; in experiment [4], more than 100 µM; in experiment [9] it was more than 100 µM; in [10], 37.4 µM. The results for the TGI in experiment [5], in experiment [6] and in experiment [8] were 41.1 µM, more than 100 µM and 64.8 µM, respectively.
Turning to `Cc1cccc2ns[s+]c12`, the TGI in experiment [1] is 39.3 µM; in experiment [2], more than 100 µM; in experiment [3], more than 100 µM; in [4] it was more than 100 µM; in experiment [9] it was more than 100 µM; in experiment [10] it was more than 100 µM. Further, the TGI in experiment [5] and in experiment [8] was more than 100 µM throughout.
For the molecule `CN(C)CCCN1c2ccc3ccccc3c2Sc2cccc(Cl)c21`, the TGI was 22.7 µM in experiment [1]; 3.25 µM in experiment [2]; 3.58 µM in experiment [3]; 32.5 µM in experiment [4]; 18.7 µM in experiment [9]; 10.6 µM in [10]. Moreover, the total growth inhibition concentration (TGI) in experiment [5] came to 19 µM; in experiment [6], 14.8 µM; in [8], 4.82 µM.
Take `O=c1[nH]/c(=C/c2ccc(OCc3ccccc3)cn2)c(=O)[nH]/c1=C/c1cccnc1`: the TGI was 7.82 µM in experiment [2]; more than 22.8 µM in experiment [3]; more than 35 µM in experiment [4]; more than 100 µM in experiment [5]; 2.08 µM in [6]; more than 100 µM in experiment [7].
